ChEMBL document CHEMBL2073946, “Role of organic anion transporter OATP1B1 (OATP-C) in hepatic uptake of irinotecan and its active metabolite, 7-ethyl-10-hydroxycamptothecin: in vitro evidence and effect of single nucleotide polymorphisms” (Drug Metab Dispos, 2005)

Key:
Format in all cases: functional, cell-based
[1] = molecular target: T1, Solute carrier organic anion transporter family member 1B1 (Homo sapiens, UniProt Q9Y6L6); assay: TP_TRANSPORTER: inhibition of E1S uptake (SN38 G 10 u M) in OATP1B1-expressing HEK293 cells; conditions: hek293, 10 µM
T1 sequence (Q9Y6L6 whole entry): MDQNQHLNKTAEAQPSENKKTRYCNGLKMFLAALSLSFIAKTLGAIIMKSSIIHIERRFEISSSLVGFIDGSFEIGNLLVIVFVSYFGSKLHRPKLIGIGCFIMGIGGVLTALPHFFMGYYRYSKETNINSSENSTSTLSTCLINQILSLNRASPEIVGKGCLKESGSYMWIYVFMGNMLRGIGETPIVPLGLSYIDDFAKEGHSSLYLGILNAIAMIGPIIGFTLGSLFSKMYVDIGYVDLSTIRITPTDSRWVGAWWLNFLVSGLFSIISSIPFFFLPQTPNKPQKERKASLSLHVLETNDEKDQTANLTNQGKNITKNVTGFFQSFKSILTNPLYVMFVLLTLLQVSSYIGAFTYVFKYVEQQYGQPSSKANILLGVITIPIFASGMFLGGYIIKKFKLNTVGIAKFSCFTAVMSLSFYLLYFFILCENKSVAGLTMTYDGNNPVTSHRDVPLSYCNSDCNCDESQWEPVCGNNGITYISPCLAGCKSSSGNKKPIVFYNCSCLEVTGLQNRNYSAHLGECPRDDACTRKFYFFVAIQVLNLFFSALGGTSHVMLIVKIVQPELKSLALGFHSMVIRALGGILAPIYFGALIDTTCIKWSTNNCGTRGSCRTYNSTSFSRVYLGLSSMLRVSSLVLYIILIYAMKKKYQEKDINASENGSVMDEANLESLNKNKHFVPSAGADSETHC

[2] = molecular target: T1, Solute carrier organic anion transporter family member 1B1; assay: TP_TRANSPORTER: uptake in OATP1B1-expressing HEK293 cell
[3] = molecular target: T1, Solute carrier organic anion transporter family member 1B1; assay: TP_TRANSPORTER: uptake in OATP1B1-expressing HEK293 cells
[4] = molecular target: T2, Solute carrier organic anion transporter family member 1B3 (Homo sapiens, UniProt Q9NPD5); assay: TP_TRANSPORTER: uptake of SN-38 at a concentration of 0.09uL/oocyte in Xenopus laevis oocytes
T2 sequence (Q9NPD5 whole entry): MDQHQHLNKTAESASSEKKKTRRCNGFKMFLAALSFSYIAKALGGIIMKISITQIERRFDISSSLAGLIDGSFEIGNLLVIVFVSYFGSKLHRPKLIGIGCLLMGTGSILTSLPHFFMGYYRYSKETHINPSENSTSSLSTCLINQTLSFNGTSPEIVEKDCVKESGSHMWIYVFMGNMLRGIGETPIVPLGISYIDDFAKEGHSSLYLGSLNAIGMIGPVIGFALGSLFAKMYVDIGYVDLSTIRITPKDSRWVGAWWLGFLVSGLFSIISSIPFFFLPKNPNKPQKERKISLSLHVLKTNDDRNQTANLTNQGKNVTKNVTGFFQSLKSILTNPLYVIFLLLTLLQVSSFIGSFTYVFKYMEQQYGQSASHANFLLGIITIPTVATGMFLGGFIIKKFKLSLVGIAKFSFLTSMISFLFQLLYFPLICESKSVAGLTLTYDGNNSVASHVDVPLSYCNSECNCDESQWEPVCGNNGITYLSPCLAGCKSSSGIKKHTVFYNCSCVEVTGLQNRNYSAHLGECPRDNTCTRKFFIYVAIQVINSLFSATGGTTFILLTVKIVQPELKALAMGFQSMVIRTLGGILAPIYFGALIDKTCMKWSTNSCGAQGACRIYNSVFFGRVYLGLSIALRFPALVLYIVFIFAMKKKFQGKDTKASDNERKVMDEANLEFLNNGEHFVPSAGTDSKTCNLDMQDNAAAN

[5] = molecular target: T3, Solute carrier organic anion transporter family member 2B1 (Homo sapiens, UniProt O94956); assay: TP_TRANSPORTER: uptake of SN-38 at a concentration of 0.10uL/oocyte in Xenopus laevis oocytes
T3 sequence (O94956 whole entry): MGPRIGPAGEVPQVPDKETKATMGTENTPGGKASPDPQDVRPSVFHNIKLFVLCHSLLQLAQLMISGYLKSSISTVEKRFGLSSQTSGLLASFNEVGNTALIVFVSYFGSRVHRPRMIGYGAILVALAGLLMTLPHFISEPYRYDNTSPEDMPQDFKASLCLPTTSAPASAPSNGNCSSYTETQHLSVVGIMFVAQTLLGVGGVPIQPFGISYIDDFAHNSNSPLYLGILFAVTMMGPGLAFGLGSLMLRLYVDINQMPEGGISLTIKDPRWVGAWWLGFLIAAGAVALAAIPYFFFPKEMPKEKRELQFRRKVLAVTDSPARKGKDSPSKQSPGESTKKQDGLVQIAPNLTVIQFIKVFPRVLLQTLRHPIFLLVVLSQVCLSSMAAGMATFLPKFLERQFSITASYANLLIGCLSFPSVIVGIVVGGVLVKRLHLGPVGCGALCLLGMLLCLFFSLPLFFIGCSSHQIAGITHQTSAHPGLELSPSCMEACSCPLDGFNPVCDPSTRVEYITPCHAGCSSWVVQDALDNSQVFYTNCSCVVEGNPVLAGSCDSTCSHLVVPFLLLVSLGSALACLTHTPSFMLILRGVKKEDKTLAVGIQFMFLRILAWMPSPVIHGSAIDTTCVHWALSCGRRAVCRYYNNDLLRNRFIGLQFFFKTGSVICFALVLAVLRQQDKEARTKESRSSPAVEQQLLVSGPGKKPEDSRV

[6] = molecular target: T1, Solute carrier organic anion transporter family member 1B1; assay: TP_TRANSPORTER: uptake of SN-38 at a concentration of 0.16uL/oocyte in Xenopus laevis oocytes
[7] = molecular target: T1, Solute carrier organic anion transporter family member 1B1; assay: TP_TRANSPORTER: inhibition of E1S uptake (SN38 10 u M) in OATP1B1-expressing HEK293 cells; design: scale not given: the % may be the effect or the level left; conditions: hek293, 10 µM

SMILES | Activity [1] | Activity [2] | Activity [3] | Activity [4] | Activity [5] | Activity [6] | Activity [7] [%]
CCc1c2c(nc3ccc(OC[C@@H]4O[C@H](C(=O)O)[C@@H](O)[C@H](O)[C@H]4O)cc13)-c1cc3c(c(=O)n1C2)COC(=O)[C@]3(O)CC | is not an inhibitor [-] | is not a substrate [-] |  |  |  |  | 
CCc1c2c(nc3ccc(O)cc13)-c1cc3c(c(=O)n1C2)COC(=O)[C@]3(O)CC [7-ETHYL-10-HYDROXYCAMPTOTHECIN] |  | substrate [+] | substrate [] | is not a substrate [-] | is not a substrate [-] | substrate [+] | 50
CCc1c2c(nc3ccc(OC(=O)N4CCC(N5CCCCC5)CC4)cc13)-c1cc3c(c(=O)n1C2)COC(=O)[C@]3(O)CC [IRINOTECAN] |  | is not a substrate [-] |  |  |  |  | 
